Experimental data reported in US9695155B2, “Herbicidal substituted pyrimidinyloxy benzene compounds” (E. I. DU PONT DE NEMOURS AND COMPANY, priority 2013, dated 2017).

What was measured:
[1] = system: large (Lg) crabgrass; assay: Test A postemergence; assay type: in vivo, Digitaria sanguinalis
In short: (§1)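 Pre- and postemergence greenhouse screen. Soil: loam + sand. Spray carrier: solvent mixture, non-phytotoxic, with surfactant. Post timing at 1–2 leaves, height 2–10 cm. Readout: visual injury on a 0–100 scale roughly 10 days after application, untreated plants as reference.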

[2] = system: large (Lg) crabgrass; assay: Test A preemergence; assay type: in vivo, Digitaria sanguinalis; conditions: for Plant response rating, Crabgrass, Large: 125 g ai/ha, 0 to 100 scale where 0 is no effect and 100 is complete control; for Crabgrass, Large plant response rating: 500 g ai/ha, 0 to 100 scale, 0 no effect, 100 complete control, approx. 10 days
In short: as §1

[3] = system: velvetleaf; assay: Test A preemergence; assay type: in vivo, Abutilon theophrasti; conditions: for Plant response rating, Velvetleaf: 125 g ai/ha, 0 to 100 scale where 0 is no effect and 100 is complete control; for Velvetleaf plant response rating: 500 g ai/ha, 0 to 100 scale, 0 no effect, 100 complete control, approx. 10 days
In short: as §1

[4] = system: morningglory; assay: Test A preemergence; assay type: in vivo, Ipomoea spp.; conditions: for Plant response rating, Morningglory: 125 g ai/ha, 0 to 100 scale where 0 is no effect and 100 is complete control; for Morningglory plant response rating: 500 g ai/ha, 0 to 100 scale, 0 no effect, 100 complete control, approx. 10 days
In short: as §1

[5] = system: corn; assay: Test A preemergence; assay type: in vivo, Zea mays; conditions: for Plant response rating, Corn: 125 g ai/ha, 0 to 100 scale where 0 is no effect and 100 is complete control; for Corn plant response rating: 500 g ai/ha, 0 to 100 scale, 0 no effect, 100 complete control, approx. 10 days
In short: as §1

[6] = system: wheat; assay: Test A postemergence; assay type: in vivo, Triticum aestivum; conditions: 0 to 100 scale where 0 is no effect and 100 is complete control
In short: as §1

[7] = system: pigweed; assay: Test A preemergence; assay type: in vivo, Amaranthus retroflexus; conditions: for Plant response rating, Pigweed: 125 g ai/ha, 0 to 100 scale where 0 is no effect and 100 is complete control; for Pigweed plant response rating: 500 g ai/ha, 0 to 100 scale, 0 no effect, 100 complete control, approx. 10 days
In short: as §1

[8] = system: barnyardgrass; assay: Test A postemergence; assay type: in vivo, Echinochloa crus-galli
In short: as §1

[9] = system: velvetleaf; assay: Test A postemergence; assay type: in vivo, Abutilon theophrasti; conditions: 0 to 100 scale where 0 is no effect and 100 is complete control
In short: as §1

[10] = system: morningglory; assay: Test A postemergence; assay type: in vivo, Ipomoea spp.; conditions: 0 to 100 scale where 0 is no effect and 100 is complete control
In short: as §1

[11] = system: barnyardgrass; assay: Test A preemergence; assay type: in vivo, Echinochloa crus-galli; conditions: for Plant response rating, Barnyardgrass: 125 g ai/ha, 0 to 100 scale where 0 is no effect and 100 is complete control; for Barnyardgrass plant response rating: 500 g ai/ha, 0 to 100 scale, 0 no effect, 100 complete control, approx. 10 days
In short: as §1

[12] = system: sedge, umbrella; assay: Test B flooded paddy test; assay type: in vivo, Cyperus difformis; conditions: Flood, 250 g ai/ha; 0 to 100 scale where 0 is no effect and 100 is complete control
In short: (§2)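 Scores from 0 (no effect) to 100 (complete control) are visual comparisons with controls, taken 13 to 15 days after compound was applied into floodwater 3 cm deep around 2-leaf plants.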

[13] = system: giant foxtail; assay: Test A preemergence; assay type: in vivo, Setaria faberii; conditions: for Plant response rating, Foxtail, Giant: 125 g ai/ha, 0 to 100 scale where 0 is no effect and 100 is complete control; for Foxtail, Giant plant response rating: 500 g ai/ha, 0 to 100 scale, 0 no effect, 100 complete control, approx. 10 days
In short: as §1

[14] = system: wheat; assay: Test A preemergence; assay type: in vivo, Triticum aestivum; conditions: for Plant response rating, Wheat: 125 g ai/ha, 0 to 100 scale where 0 is no effect and 100 is complete control; for Wheat plant response rating: 500 g ai/ha, 0 to 100 scale, 0 no effect, 100 complete control, approx. 10 days
In short: as §1

[15] = system: Heteranthera limosa; assay: Test B flooded paddy test; assay type: in vivo; conditions: Flood, 250 g ai/ha; 0 to 100 scale where 0 is no effect and 100 is complete control
In short: as §2

[16] = system: giant foxtail; assay: Test A postemergence; assay type: in vivo, Setaria faberii; conditions: 0 to 100 scale where 0 is no effect and 100 is complete control
In short: as §1

[17] = system: corn; assay: Test A postemergence; assay type: in vivo, Zea mays
In short: as §1

[18] = system: rice; assay: Test B flooded paddy test; assay type: in vivo, Oryza sativa; conditions: Flood, 250 g ai/ha; 0 to 100 scale where 0 is no effect and 100 is complete control
In short: as §2

[19] = system: pigweed; assay: Test A postemergence; assay type: in vivo, Amaranthus retroflexus; conditions: 0 to 100 scale where 0 is no effect and 100 is complete control
In short: as §1

[20] = system: barnyardgrass; assay: Test B flooded paddy test; assay type: in vivo, Echinochloa crus-galli; conditions: Flood, 250 g ai/ha; 0 to 100 scale where 0 is no effect and 100 is complete control
In short: as §2

[21] = 125 g ai/ha, 0 to 100 scale where 0 is no effect and 100 is complete control
[22] = 500 g ai/ha, 0 to 100 scale, 0 no effect, 100 complete control
[23] = 500 g ai/ha, 0 to 100 scale where 0 is no effect and 100 is complete control

Structure (SMILES)	Plant response rating, Crabgrass, Large [1, 21]	Plant response rating, Crabgrass, Large [2]	Crabgrass, Large plant response rating [2]	Plant response rating, Velvetleaf [3]	Plant response rating, Morningglory [4]	Morningglory plant response rating [4]	Plant response rating, Corn [5]	Corn plant response rating [5]	Plant response rating, Wheat ([6]; 125 g ai/ha)	Plant response rating, Wheat ([6]; 500 g ai/ha)	Plant response rating, Pigweed [7]	Pigweed plant response rating [7]	Plant response rating, Barnyardgrass [8, 21]	Plant response rating, Velvetleaf ([9]; 125 g ai/ha)	Plant response rating, Velvetleaf ([9]; 500 g ai/ha)	Plant response rating, Morningglory ([10]; 125 g ai/ha)	Plant response rating, Morningglory ([10]; 500 g ai/ha)	Plant response rating, Barnyardgrass [11]	Barnyardgrass plant response rating [11]	Plant response rating, Sedge, Umbrella [12]	also measured
FC(F)(F)c1cccc(Oc2ncc(Cl)cn2)c1-n1cc(Br)cn1 [Compound 64]	80	90	90	40	0	20	0	70	0	30	90	100	60	100	100	60	80	60	100	80	Plant response rating, Crabgrass, Large [1, 22]: 100; Velvetleaf plant response rating [3]: 90; Plant response rating, Barnyardgrass [8, 22]: 100; Plant response rating, Foxtail, Giant [13]: 90; Foxtail, Giant plant response rating [13]: 90; Plant response rating, Wheat [14]: 0; Wheat plant response rating [14]: 30; Plant response rating, Ducksalad [15]: 70; Plant response rating, Foxtail, Giant ([16]; 125 g ai/ha): 80; Plant response rating, Foxtail, Giant ([16]; 500 g ai/ha): 100; Plant response rating, Corn [17, 21]: 30; Plant response rating, Corn [17, 22]: 90; Plant response rating, Rice [18]: 0; Plant response rating, Pigweed ([19]; 125 g ai/ha): 100; Plant response rating, Pigweed ([19]; 500 g ai/ha): 100; Plant response rating, Barnyardgrass [20]: 0
N#Cc1cccc(Oc2ncc(I)cn2)c1-n1cc(Cl)cn1 [Compound 75]	20	70	100	40	20	30	0	10	0	0	100	100	30	40	70	50	60	20	70	50	Plant response rating, Crabgrass, Large [1, 22]: 70; Velvetleaf plant response rating [3]: 80; Plant response rating, Barnyardgrass [8, 22]: 70; Plant response rating, Foxtail, Giant [13]: 40; Foxtail, Giant plant response rating [13]: 100; Plant response rating, Wheat [14]: 0; Wheat plant response rating [14]: 0; Plant response rating, Ducksalad [15]: 60; Plant response rating, Foxtail, Giant ([16]; 125 g ai/ha): 10; Plant response rating, Foxtail, Giant ([16]; 500 g ai/ha): 80; Plant response rating, Corn [17, 21]: 0; Plant response rating, Corn [17, 22]: 40; Plant response rating, Rice [18]: 0; Plant response rating, Pigweed ([19]; 125 g ai/ha): 70; Plant response rating, Pigweed ([19]; 500 g ai/ha): 100; Plant response rating, Barnyardgrass [20]: 0
O=Cc1cccc(Oc2ncc(F)cn2)c1-n1cc(Cl)cn1 [Compound 93]	0	0	30	0	0	0	0	0	0	0	0	30	0	0	0	0	0	0	0	0	Plant response rating, Crabgrass, Large [1, 23]: 0; Plant response rating, Barnyardgrass [8, 23]: 0; Plant response rating, Foxtail, Giant [13]: 0; Foxtail, Giant plant response rating [13]: 0; Plant response rating, Wheat [14]: 0; Plant response rating, Ducksalad [15]: 0; Plant response rating, Foxtail, Giant ([16]; 125 g ai/ha): 0; Plant response rating, Foxtail, Giant ([16]; 500 g ai/ha): 0; Plant response rating, Corn [17, 21]: 0; Plant response rating, Corn [17, 23]: 0; Plant response rating, Rice [18]: 0; Plant response rating, Pigweed ([19]; 125 g ai/ha): 0; Plant response rating, Pigweed ([19]; 500 g ai/ha): 0; Plant response rating, Barnyardgrass [20]: 0
CC(=O)c1cccc(Oc2ncc(Cl)cn2)c1-n1cc(Br)cn1 [Compound 96]	10	30	90	0	0	0	0	0	0	0	50	100	10	0	10	0	10	0	30	0	Plant response rating, Crabgrass, Large [1, 23]: 30; Plant response rating, Barnyardgrass [8, 23]: 30; Plant response rating, Foxtail, Giant [13]: 10; Foxtail, Giant plant response rating [13]: 60; Plant response rating, Wheat [14]: 0; Plant response rating, Ducksalad [15]: 0; Plant response rating, Foxtail, Giant ([16]; 125 g ai/ha): 0; Plant response rating, Foxtail, Giant ([16]; 500 g ai/ha): 20; Plant response rating, Corn [17, 21]: 0; Plant response rating, Corn [17, 23]: 10; Plant response rating, Rice [18]: 0; Plant response rating, Pigweed ([19]; 125 g ai/ha): 10; Plant response rating, Pigweed ([19]; 500 g ai/ha): 40; Plant response rating, Barnyardgrass [20]: 0
